Data on 18 molecules can be found in ChEMBL document CHEMBL3301361, “Experimental in vitro DMPK and physicochemical data on a set of publicly disclosed compounds”.

Structures are written as SMILES. ≈ marks a conversion by molar mass, not a printed value.

Series [1] in a line: physchem. Conditions: octan-1-ol/water, pH 7.4, LogD7.4.
The nature of series [2]: physchem. The conditions noted are these: pH 7.4 buffer.
Series [3] in a line: in vitro. Conditions: human, plasma.
A short description of series [4]: in vitro. Conditions: human.
A short description of series [5]: in vitro. The conditions noted are these: hepatocytes.
The nature of series [6]: in vitro. The conditions noted are these: human, hepatocytes.
A short description of series [7]: in vitro. The conditions noted are these: SD, HW or BN, rat, plasma.
Series [8] in a line: physchem.

The term logD denotes lipophilicity at a set pH, counting ionised and neutral species. Low readings indicate a more hydrophilic compound, high ones a more lipophilic compound. The thermodynamic solubility is solubility found after equilibrating the solid with the medium. As usually defined, the fraction unbound is the share of the substance not bound to proteins or other matrix. Low values mean extensive binding, high ones weak binding. As usually defined, the microsomal CLint is a measure of how fast metabolising enzymes remove a compound, apart from limits set by blood flow. High values mean faster metabolism, low ones greater metabolic stability. In general, hepatocyte CLint refers to the capacity of the preparation to metabolise the compound, expressed as a volume cleared per time. In the series “physchem [1]”, `O=C1COC2(CCN(S(=O)(=O)c3ccc(-c4ccc5cnccc5c4)cc3)CC2)CN1C1CC1` yielded a logD of 3.32. Further, in the series “physchem [2]”, the solubility (thermodynamic) came out at 2.2 µM (≈ 1.05 µg/mL). Also, the fraction unbound at 5 h in the series “in vitro [3]” (PPB) is 0.0018. Besides, the microsomal CLint in the series “in vitro [4]” (liver microsomes) was found to be 115 µL/min/mg. The hepatocyte CLint in “in vitro [5]” and in the series “in vitro [6]” was above 150 µL/min/1e6 cells each time.
Take `COc1cccc2c1c(NS(=O)(=O)c1ccc(Cl)s1)nn2Cc1cccc(CNC(=O)[C@H]2COCCN2)c1`: the fraction unbound at 5 h is 0.0156 in the series “in vitro [3]” (PPB) and 0.0052 in “in vitro [7]”. Moreover, the microsomal CLint in the series “in vitro [4]” (microsomes) came out at 58.5 µL/min/mg. Also, the results for the hepatocyte CLint in the series “in vitro [5]” and in the series “in vitro [6]” were 28 µL/min/1e6 cells and 16 µL/min/1e6 cells, respectively.
For `COc1cccc2c1c(NS(=O)(=O)c1ccc(Cl)s1)nn2Cc1cccc(CNC(=O)[C@@H]2COCCN2)c1`, the logD in the series “physchem [1]” is 1.61. In addition, the solubility (thermodynamic) in the series “physchem [2]” worked out at 27.5 µM (≈ 15.8 µg/mL). In addition, the results for the unbound share (fraction unbound) at 5 h in “in vitro [3]” (PPB) and in the series “in vitro [7]” were 0.016 and 0.0156, respectively. The same molecule had a microsomal CLint in the series “in vitro [4]” (microsomes) of 40.5 µL/min/mg. In addition, the hepatocyte CLint in “in vitro [5]” was 26 µL/min/1e6 cells; in “in vitro [6]”, 20 µL/min/1e6 cells.
For `O=C(O)C[C@H]1CC[C@H](c2ccc(-c3ccc(Nc4ccc(C(F)(F)F)nc4)cn3)cc2)CC1`, the logD in the series “physchem [1]” came to 3.8. In the series “physchem [2]”, this molecule registered a solubility (thermodynamic) of 1.1 µM (≈ 0.501 µg/mL). Further, in the series “in vitro [4]” (liver microsomes), the microsomal CLint is below 3 µL/min/mg. For the same molecule, the intrinsic clearance (hepatocyte CLint) is 11.5 µL/min/1e6 cells in “in vitro [5]” and below 3 µL/min/1e6 cells in the series “in vitro [6]”.
Regarding `O=C(N[C@H](Cc1ccc(Cl)cc1)C(=O)N1CCC(Cn2cncn2)(C2CCCCC2)CC1)[C@H]1Cc2ccccc2CN1`, the fraction unbound at 5 h in “in vitro [3]” (PPB) is 0.007; in the series “in vitro [7]”, 0.0052. For the same molecule, the hepatocyte CLint in the series “in vitro [5]” amounted to 40.7 µL/min/1e6 cells; in the series “in vitro [6]”, 27.5 µL/min/1e6 cells.
In general, pKa refers to the pH at which an ionisable group is half protonated. As for `c1ccc(CSc2nc3ccccc3o2)nc1`, the pKa in the series “physchem [8]” turned out to be 4.3.
`O=c1c2sccc2n(CC2COc3ccccc3O2)c(=O)n1O` (centres undefined): the log distribution coefficient (logD) in the series “physchem [1]” was 1.44. In “physchem [2]”, this molecule displayed a solubility (thermodynamic) of 120 µM (≈ 39.9 µg/mL). The molecule further registered a microsomal CLint in the series “in vitro [4]” (liver microsomes) below 3 µL/min/mg. The figures for the hepatocyte CLint in “in vitro [5]” and in the series “in vitro [6]” were 14.8 µL/min/1e6 cells and 135 µL/min/1e6 cells, respectively.
For `O=C(Cc1ccc(Cl)c(C(F)(F)F)c1)Nc1cccc2c(=O)n(CCO)ccc12`, the fraction unbound at 5 h is 0.0097 in “in vitro [3]” (PPB) and 0.072 in “in vitro [7]”. The same molecule came in with a microsomal CLint in “in vitro [4]” (liver microsomes) below 3 µL/min/mg. Further, the results for the hepatocyte CLint in the series “in vitro [5]” and in the series “in vitro [6]” were 11 µL/min/1e6 cells and 32 µL/min/1e6 cells, respectively.
Turning to `O=C(NCC1(O)CCCCCC1)c1cc(-n2ncc(=O)[nH]c2=O)ccc1Cl`, the logD in the series “physchem [1]” came out at 0.26. The fraction unbound at 5 h in the series “in vitro [3]” (PPB) is 0.24; in the series “in vitro [7]”, 0.129. The microsomal CLint in the series “in vitro [4]” (liver microsomes) was below 3 µL/min/mg. Moreover, the intrinsic metabolic clearance (hepatocyte CLint) in “in vitro [5]” and in the series “in vitro [6]” was below 3 µL/min/1e6 cells throughout.
For the molecule `Cn1c([S+]([O-])Cc2ccccn2)nc2ccccc21` (centres undefined), the pKa in “physchem [8]” was 2.6.
Turning to `CN(C)CCCOc1nn(Cc2ccccc2)c2ccccc12` [BENZYDAMINE], the logD in the series “physchem [1]” was found to be 2.4. The molecule further returned a microsomal CLint in “in vitro [4]” (microsomes) of 17.8 µL/min/mg. Moreover, the hepatocyte CLint is above 150 µL/min/1e6 cells in “in vitro [5]” and 7.76 µL/min/1e6 cells in the series “in vitro [6]”.
For `CC(C)NCC(O)COc1ccc(CCOCC2CC2)cc1` (centres undefined) [BETAXOLOL], the values for the fraction unbound at 5 h in “in vitro [3]” (PPB) and in the series “in vitro [7]” were 0.725 and 0.409, respectively. The molecule also had a microsomal CLint in “in vitro [4]” (microsomes) below 3 µL/min/mg. For the same molecule, the hepatocyte CLint in “in vitro [5]” was 12 µL/min/1e6 cells; in the series “in vitro [6]” it was below 3 µL/min/1e6 cells.
In the series “physchem [1]”, `CCC(=O)N[C@H]1CC[C@@H](C(=O)N(C)c2ccc(-c3nc4ccccc4o3)cc2)C1` [BI 99179] yielded a logD of 3.4. For the same molecule, the solubility (thermodynamic) in “physchem [2]” was found to be 45.7 µM (≈ 17.9 µg/mL). Besides, the intrinsic clearance (microsomal CLint) in the series “in vitro [4]” (microsomes) came to 11 µL/min/mg. The intrinsic metabolic clearance (hepatocyte CLint) in the series “in vitro [5]” is 7.59 µL/min/1e6 cells; in the series “in vitro [6]”, 4.57 µL/min/1e6 cells.
`C[C@]12CCC(=O)C=C1C=C[C@@H]1[C@@H]2CC[C@@]2(C)[C@H]1CC[C@@]21CCC(=O)O1` [CANRENONE]: the logD in “physchem [1]” is 3.2. The fraction unbound at 5 h in “in vitro [3]” (PPB) was 0.0594; in the series “in vitro [7]” it was 0.0383. The microsomal CLint in the series “in vitro [4]” (liver microsomes) came to 14.4 µL/min/mg. The hepatocyte CLint in “in vitro [5]” came out at 45.7 µL/min/1e6 cells; in “in vitro [6]” it was 6.61 µL/min/1e6 cells.
For `Cc1ccc(C)c(OCCCC(C)(C)C(=O)O)c1` [GEMFIBROZIL], the logD in the series “physchem [1]” turned out to be 0.72. The results for the fraction unbound at 5 h in the series “in vitro [3]” (PPB) and in “in vitro [7]” were 0.0023 and 0.0153, respectively. The molecule also displayed a microsomal CLint in the series “in vitro [4]” (microsomes) of 29.5 µL/min/mg. Besides, the hepatocyte CLint was above 150 µL/min/1e6 cells in “in vitro [5]” and 66.1 µL/min/1e6 cells in “in vitro [6]”.
Turning to `O=C(c1ccc(F)cc1)C1CCN(CCn2c(=O)[nH]c3ccccc3c2=O)CC1` [KETANSERIN], the fraction unbound at 5 h in the series “in vitro [3]” (PPB) is 0.0968; in the series “in vitro [7]”, 0.0064. Moreover, the hepatocyte CLint in the series “in vitro [5]” was 24.6 µL/min/1e6 cells; in “in vitro [6]”, 30.2 µL/min/1e6 cells.
In turn, `O=C1Nc2ccc(Cl)cc2C(c2ccccc2Cl)=NC1O` (centres undefined) [LORAZEPAM] showed a solubility (thermodynamic) in “physchem [2]” of 178 µM (≈ 57.1 µg/mL). In addition, the fraction unbound at 5 h in the series “in vitro [3]” was 0.072. In addition, the microsomal CLint in the series “in vitro [4]” (liver microsomes) worked out at 7.94 µL/min/mg. For the same molecule, the hepatocyte CLint in “in vitro [5]” was found to be 17.4 µL/min/1e6 cells; in the series “in vitro [6]”, 4.57 µL/min/1e6 cells.
In turn, `Cc1c(C)c2c(c(C)c1O)CCC(C)(COc1ccc(CC3SC(=O)NC3=O)cc1)O2` (centres undefined) [TROGLITAZONE] gave a fraction unbound at 5 h in “in vitro [3]” (PPB) of 0.0009. The same molecule displayed a microsomal CLint in the series “in vitro [4]” (liver microsomes) of 49 µL/min/mg. The hepatocyte CLint was above 150 µL/min/1e6 cells in “in vitro [5]” and 28.2 µL/min/1e6 cells in the series “in vitro [6]”.
